From ChEMBL document CHEMBL5634117 (Eur J Med Chem, 2023)

Key:
SK-OV-3 = assay: Growth inhibition of human SK-OV-3 cells assessed as reduction in cell viability measured after 48 hrs by SRB assay; assay type: functional
NCI-H23 = assay: Growth inhibition of human NCI-H23 cells assessed as reduction in cell viability measured after 48 hrs by SRB assay; assay type: functional
IGROV-1 = assay: Growth inhibition of human IGROV-1 cells assessed as reduction in cell viability measured after 48 hrs by SRB assay; assay type: functional
HL-60(TB) = assay: Growth inhibition of human HL-60(TB) cells assessed as reduction in cell viability measured after 48 hrs by SRB assay; assay type: functional
MOLT-4 = assay: Growth inhibition of human MOLT-4 cells assessed as reduction in cell viability measured after 48 hrs by SRB assay; assay type: functional
ACHN = assay: Growth inhibition of human ACHN cells assessed as reduction in cell viability measured after 48 hrs by SRB assay; assay type: functional
A498 = assay: Growth inhibition of human A498 cells assessed as reduction in cell viability measured after 48 hrs by SRB assay; assay type: functional
Malme-3M = assay: Growth inhibition of human Malme-3M cells assessed as reduction in cell viability measured after 48 hrs by SRB assay; assay type: functional
SNB-19 = assay: Growth inhibition of human SNB-19 cells assessed as reduction in cell viability measured after 48 hrs by SRB assay; assay type: functional
NCI/ADR-RES = assay: Growth inhibition of human NCI/ADR-RES cells assessed as reduction in cell viability measured after 48 hrs by SRB assay; assay type: functional
SK-MEL-2 = assay: Growth inhibition of human SK-MEL-2 cells assessed as reduction in cell viability measured after 48 hrs by SRB assay; assay type: functional
BT-549 = assay: Growth inhibition of human BT-549 cells assessed as reduction in cell viability measured after 48 hrs by SRB assay; assay type: functional
OVCAR-5 = assay: Growth inhibition of human OVCAR-5 cells assessed as reduction in cell viability measured after 48 hrs by SRB assay; assay type: functional
UACC-257 = assay: Growth inhibition of human UACC-257 cells assessed as reduction in cell viability measured after 48 hrs by SRB assay; assay type: functional
T47D = assay: Growth inhibition of human T47D cells assessed as reduction in cell viability measured after 48 hrs by SRB assay; assay type: functional
NCI-H460 = assay: Growth inhibition of human NCI-H460 cells assessed as reduction in cell viability measured after 48 hrs by SRB assay; assay type: functional
HCT-15 = assay: Growth inhibition of human HCT-15 cells assessed as reduction in cell viability measured after 48 hrs by SRB assay; assay type: functional
OVCAR-3 = assay: Growth inhibition of human OVCAR-3 cells assessed as reduction in cell viability measured after 48 hrs by SRB assay; assay type: functional
HOP-62 = assay: Growth inhibition of human HOP-62 cells assessed as reduction in cell viability measured after 48 hrs by SRB assay; assay type: functional
NCI-H522 = assay: Growth inhibition of human NCI-H522 cells assessed as reduction in cell viability measured after 48 hrs by SRB assay; assay type: functional
OVCAR-4 = assay: Growth inhibition of human OVCAR-4 cells assessed as reduction in cell viability measured after 48 hrs by SRB assay; assay type: functional
MCF7 = assay: Growth inhibition of human MCF7 cells assessed as reduction in cell viability measured after 48 hrs by SRB assay; assay type: functional
SF-295 = assay: Growth inhibition of human SF-295 cells assessed as reduction in cell viability measured after 48 hrs by SRB assay; assay type: functional
HOP-92 = assay: Growth inhibition of human HOP-92 cells assessed as reduction in cell viability measured after 48 hrs by SRB assay; assay type: functional
COLO 205 = assay: Growth inhibition of human COLO 205 cells assessed as reduction in cell viability measured after 48 hrs by SRB assay; assay type: functional
MDA-MB-435 = assay: Growth inhibition of human MDA-MB-435 cells assessed as reduction in cell viability measured after 48 hrs by SRB assay; assay type: functional
UO-31 = assay: Growth inhibition of human UO-31 cells assessed as reduction in cell viability measured after 48 hrs by SRB assay; assay type: functional
A549 = assay: Growth inhibition of human A549 cells assessed as reduction in cell viability measured after 48 hrs by SRB assay; assay type: functional
CCRF-CEM = assay: Growth inhibition of human CCRF-CEM cells assessed as reduction in cell viability measured after 48 hrs by SRB assay; assay type: functional
LOX IMVI = assay: Growth inhibition of human LOX IMVI cells assessed as reduction in cell viability measured after 48 hrs by SRB assay; assay type: functional
NCI-H322M = assay: Growth inhibition of human NCI-H322M cells assessed as reduction in cell viability measured after 48 hrs by SRB assay; assay type: functional
Hs-578T = assay: Growth inhibition of human Hs-578T cells assessed as reduction in cell viability measured after 48 hrs by SRB assay; assay type: functional
UACC-62 = assay: Growth inhibition of human UACC-62 cells assessed as reduction in cell viability measured after 48 hrs by SRB assay; assay type: functional
RXF 393 = assay: Growth inhibition of human RXF 393 cells assessed as reduction in cell viability measured after 48 hrs by SRB assay; assay type: functional
HCT-116 = assay: Growth inhibition of human HCT-116 cells assessed as reduction in cell viability measured after 48 hrs by SRB assay; assay type: functional
KM12 = assay: Growth inhibition of human KM12 cells assessed as reduction in cell viability measured after 48 hrs by SRB assay; assay type: functional
TK-10 = assay: Growth inhibition of human TK-10 cells assessed as reduction in cell viability measured after 48 hrs by SRB assay; assay type: functional
[1] = molecular target: Mitogen-activated protein kinase 10 (Homo sapiens, UniProt P53779); assay: Inhibition of human JNK3 at 10 uM in presence of ATP relative to control
Chain of Mitogen-activated protein kinase 10 (P53779 whole entry): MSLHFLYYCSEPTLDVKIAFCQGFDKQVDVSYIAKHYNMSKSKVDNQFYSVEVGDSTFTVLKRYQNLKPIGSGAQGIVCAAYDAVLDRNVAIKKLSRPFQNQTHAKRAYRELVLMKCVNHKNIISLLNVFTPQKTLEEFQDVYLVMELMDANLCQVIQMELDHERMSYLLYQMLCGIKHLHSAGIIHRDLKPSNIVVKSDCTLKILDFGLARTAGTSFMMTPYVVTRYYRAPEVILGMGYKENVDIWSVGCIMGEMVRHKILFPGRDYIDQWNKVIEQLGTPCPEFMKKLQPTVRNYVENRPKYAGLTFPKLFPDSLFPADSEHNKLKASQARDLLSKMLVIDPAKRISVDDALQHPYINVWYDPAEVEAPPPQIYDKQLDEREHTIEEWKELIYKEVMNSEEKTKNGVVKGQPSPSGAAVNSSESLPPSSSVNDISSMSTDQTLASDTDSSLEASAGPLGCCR

[2] = molecular target: Mitogen-activated protein kinase 8 (Homo sapiens, UniProt P45983); assay: Inhibition of human JNK1 at 10 uM in presence of ATP relative to control
Chain of Mitogen-activated protein kinase 8 (P45983 whole entry): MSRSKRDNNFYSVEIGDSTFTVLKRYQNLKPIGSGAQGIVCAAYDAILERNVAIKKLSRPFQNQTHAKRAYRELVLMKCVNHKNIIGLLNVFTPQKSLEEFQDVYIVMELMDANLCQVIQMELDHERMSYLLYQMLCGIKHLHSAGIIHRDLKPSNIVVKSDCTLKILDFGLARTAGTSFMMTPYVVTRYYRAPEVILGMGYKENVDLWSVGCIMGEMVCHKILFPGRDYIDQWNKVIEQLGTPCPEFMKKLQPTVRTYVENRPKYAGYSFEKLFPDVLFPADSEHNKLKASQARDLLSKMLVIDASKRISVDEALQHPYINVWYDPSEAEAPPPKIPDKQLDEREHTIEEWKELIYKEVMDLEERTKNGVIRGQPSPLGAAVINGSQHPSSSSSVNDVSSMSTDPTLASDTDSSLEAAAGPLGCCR

EKVX = assay: Growth inhibition of human EKVX cells assessed as reduction in cell viability measured after 48 hrs by SRB assay; assay type: functional
SW-620 = assay: Growth inhibition of human SW620 cells assessed as reduction in cell viability measured after 48 hrs by SRB assay; assay type: functional
SNB-75 = assay: Growth inhibition of human SNB-75 cells assessed as reduction in cell viability measured after 48 hrs by SRB assay; assay type: functional
HCC 2998 = assay: Growth inhibition of human HCC 2998 cells assessed as reduction in cell viability measured after 48 hrs by SRB assay; assay type: functional
SK-MEL-28 = assay: Growth inhibition of human SK-MEL-28 cells assessed as reduction in cell viability measured after 48 hrs by SRB assay; assay type: functional
HT-29 = assay: Growth inhibition of human HT-29 cells assessed as reduction in cell viability measured after 48 hrs by SRB assay; assay type: functional
SF-539 = assay: Growth inhibition of human SF-539 cells assessed as reduction in cell viability measured after 48 hrs by SRB assay; assay type: functional

CC(C)(C)n1cc(-c2ccnc(NCCCNS(=O)(=O)c3cccc4ccccc34)c2)c(-c2cccc(O)c2)n1
GI50 (SK-OV-3): 2630 nM
GI50 (NCI-H23): 1780 nM
GI50 (IGROV-1): 2140 nM
GI50 (HL-60(TB)): 2680 nM
GI50 (MOLT-4): 2000 nM
GI50 (ACHN): 2700 nM
GI50 (A498): 1370 nM
GI50 (Malme-3M): 1510 nM
GI50 (SNB-19): 2630 nM
GI50 (NCI/ADR-RES): 1850 nM
GI50 (SK-MEL-2): 1880 nM
GI50 (BT-549): 1840 nM
GI50 (OVCAR-5): 1980 nM
GI50 (UACC-257): 2070 nM
GI50 (T47D): 2220 nM
GI50 (NCI-H460): 1930 nM
GI50 (HCT-15): 1530 nM
GI50 (OVCAR-3): 2060 nM
GI50 (HOP-62): 1830 nM
GI50 (NCI-H522): 1990 nM
GI50 (OVCAR-4): 1920 nM
GI50 (MCF7): 1910 nM
GI50 (SF-295): 1800 nM
GI50 (HOP-92): 1710 nM
GI50 (COLO 205): 1890 nM
GI50 (MDA-MB-435): 1760 nM
GI50 (UO-31): 2260 nM
GI50 (A549): 2290 nM
GI50 (CCRF-CEM): 2440 nM
GI50 (LOX IMVI): 1730 nM
GI50 (NCI-H322M): 2660 nM
GI50 (Hs-578T): 1890 nM
GI50 (UACC-62): 1670 nM
GI50 (RXF 393): 1520 nM
GI50 (HCT-116): 1400 nM
GI50 (KM12): 2340 nM
GI50 (TK-10): 2850 nM
inhibition [1]: 98.7%
inhibition [2]: 100%
GI50 (EKVX): 2130 nM
GI50 (SW-620): 1810 nM
GI50 (SNB-75): 1880 nM
GI50 (HCC 2998): 1870 nM
GI50 (SK-MEL-28): 1670 nM
GI50 (HT-29): 1270 nM
GI50 (SF-539): 1830 nM
